From ChEMBL document CHEMBL5346930, “Discovery of novel N-benzylarylamide-dithiocarbamate based derivatives as dual inhibitors of tubulin polymerization and LSD1 that inhibit gastric cancers” (Eur J Med Chem, 2023)
The source made the active and inactive calls. No cut-off for these calls is given here.

What was measured:
[1] = tested on: MGC-803; assay: cells; details: Homo sapiens, MGC-803, 48 h
Description: Antiproliferative activity against human MGC-803 cells assessed as inhibition of cell growth incubated for 48 hrs by MTT assay

[2] = tested on: KYSE-450; assay: cells; details: Homo sapiens, KYSE-450, 48 h
Description: Antiproliferative activity against human KYSE-450 cells assessed as inhibition of cell growth incubated for 48 hrs by MTT assay

[3] = tested on: HCT-116; assay: cells; details: Homo sapiens, HCT-116, 48 h
Description: Antiproliferative activity against human HCT-116 cells assessed as inhibition of cell growth incubated for 48 hrs by MTT assay

[4] = tested on: MGC-803; assay: Antitumor activity against human MGC-803 cells xenografted in BALB/c nude mouse assessed as reduction in tumor volume at 25 mg/kg/day, ip administered every day for 21 days; type: functional, organism-based; details: time 21.0 day
[5] = tested on: MGC-803; assay: Antitumor activity against human MGC-803 cells xenografted in BALB/c nude mouse assessed as tumor growth inhibition at 25 mg/kg/day, ip administered every day for 21 days; type: functional, organism-based; details: time 21.0 day
[6] = tested on: MGC-803; assay: Antitumor activity against human MGC-803 cells xenografted in BALB/c nude mouse assessed as reduction in tumor weight at 25 mg/kg/day, ip administered every day for 21 days; type: functional, organism-based; details: time 21.0 day
[7] = target: Lysine-specific histone demethylase 1A (Homo sapiens, UniProt O60341); assay: Inhibition of recombinant LSD1 (unknown origin) using H3K4me2 peptide as substrate preincubated for 10 mins followed by substrate addition and measured after 30 mins by amplex red based fluorescence microplate reader analysis

SMILES | IC50 [1] | IC50 [2] | IC50 [3] | Activity [4] | Activity [5] | Activity [6] | IC50 [7]
COC(=O)N1CCN(C(=S)SCC(=O)N(Cc2ccc(OC)c(O)c2)c2cc(OC)c(OC)c(OC)c2)CC1 | 140 nM | 160 nM | 160 nM |  |  |  | 
COc1ccc(CN(C(=O)CSC(=S)N2CCN(C(=O)C3CC3)CC2)c2cc(OC)c(OC)c(OC)c2)cc1O | 120 nM | 200 nM | 100 nM |  |  |  | 
COc1ccc(CN(C(=O)CSC(=S)N2CCC(C(=O)OC(C)(C)C)CC2)c2cc(OC)c(OC)c(OC)c2)cc1O | 180 nM | 200 nM | 110 nM |  |  |  | 
COc1ccc(CN(C(=O)CSC(=S)N2CCC(OC)CC2)c2cc(OC)c(OC)c(OC)c2)cc1O | 1260 nM | 890 nM | 600 nM |  |  |  | 
COc1ccc(CN(C(=O)CSC(=S)N2CCN(c3ccccc3OC)CC2)c2cc(OC)c(OC)c(OC)c2)cc1O | 120 nM | 320 nM | 240 nM |  |  |  | 
COc1ccc(CN(C(=O)CSC(=S)N2CCN(c3ccc(F)cc3)CC2)c2cc(OC)c(OC)c(OC)c2)cc1O | 39 nM | 67 nM | 46 nM |  |  |  | 
COc1ccc(CN(C(=O)CSC(=S)N2CCN(c3ccc([N+](=O)[O-])cc3)CC2)c2cc(OC)c(OC)c(OC)c2)cc1O | 54 nM | 72 nM | 67 nM |  |  |  | 
COc1ccc(CN(C(=O)CSC(=S)N2CCN(c3ccc(C#N)cc3)CC2)c2cc(OC)c(OC)c(OC)c2)cc1O | 26 nM | 37 nM | 79 nM |  |  |  | 
COc1ccc(CN(C(=O)CSC(=S)N2CCN(CCO)CC2)c2cc(OC)c(OC)c(OC)c2)cc1O | 540 nM | 490 nM | 520 nM |  |  |  | 
CCCCN1CCN(C(=S)SCC(=O)N(Cc2ccc(OC)c(O)c2)c2cc(OC)c(OC)c(OC)c2)CC1 | 30 nM | 73 nM | 97 nM |  |  |  | 
COc1ccc(CN(C(=O)CSC(=S)N2CCN(C(C)=O)CC2)c2cc(OC)c(OC)c(OC)c2)cc1O | 460 nM | 340 nM |  |  |  |  | 
CCN1CCN(C(=S)SCC(=O)N(Cc2ccc(OC)c(O)c2)c2cc(OC)c(OC)c(OC)c2)CC1 | 250 nM | 310 nM |  |  |  |  | 
COC(=O)C1CCN(C(=S)SCC(=O)N(Cc2ccc(OC)c(O)c2)c2cc(OC)c(OC)c(OC)c2)CC1 | 310 nM | 280 nM | 230 nM |  |  |  | 
COc1ccc(CN(C(=O)CSC(=S)N2CCN(C(C)(C)C)CC2)c2cc(OC)c(OC)c(OC)c2)cc1O | 430 nM | 700 nM | 620 nM |  |  |  | 
COc1ccc(CN(C(=O)CSC(=S)N2CCN(C(C)C)CC2)c2cc(OC)c(OC)c(OC)c2)cc1O | 100 nM | 170 nM | 160 nM |  |  |  | 
COc1ccc(CN(C(=O)CSC(=S)N2CCN(c3ccccc3)CC2)c2cc(OC)c(OC)c(OC)c2)cc1O | 62 nM | 52 nM | 78 nM |  |  |  | 
COc1ccc(CN(C(=O)CSC(=S)N2CCN(C3CC3)CC2)c2cc(OC)c(OC)c(OC)c2)cc1O | 120 nM | 210 nM | 480 nM |  |  |  | 
COc1ccc(CN(C(=O)CSC(=S)N2CCC(O)CC2)c2cc(OC)c(OC)c(OC)c2)cc1O | 560 nM | 460 nM | 800 nM |  |  |  | 
COc1ccc(CN(C(=O)CSC(=S)N2CCN(C)CC2)c2cc(OC)c(OC)c(OC)c2)cc1O | 270 nM | 750 nM | 820 nM |  |  |  | 

SMILES | IC50 [1] | IC50 [2] | IC50 [3] | Activity [4] | Activity [5] | Activity [6] | IC50 [7]
COc1ccc(CN(C(=O)CSC(=S)N2CCN(c3ccc(Br)cc3)CC2)c2cc(OC)c(OC)c(OC)c2)cc1O | 27 nM | 36 nM | 51 nM |  |  |  | 
COc1ccc(CN(C(=O)CSC(=S)N2CCN(C=O)CC2)c2cc(OC)c(OC)c(OC)c2)cc1O | 190 nM | 210 nM | 120 nM |  |  |  | 
COc1ccc(/C=C\c2cc(OC)c(OC)c(OC)c2)cc1O |  |  |  | Active | Active | Active | 
NC1CCC(N[C@@H]2C[C@H]2c2ccccc2)CC1 (stereo not given in full) | > 20000 nM | > 20000 nM | > 20000 nM |  |  |  | 
COc1ccc(CN(C(=O)CSC(=S)N2CCN(S(C)(=O)=O)CC2)c2cc(OC)c(OC)c(OC)c2)cc1O | 230 nM | 430 nM | 500 nM |  |  |  | 
COc1ccc(CN(C(=O)CSC(=S)N2CCCC(C)C2)c2cc(OC)c(OC)c(OC)c2)cc1O (stereo not given) | 480 nM | 530 nM | 640 nM |  |  |  | 
COc1cc2c(c(OC)c1OC)-c1ccc(OC)c(=O)cc1[C@@H](NC(C)=O)CC2 [COLCHICINE] | 56 nM | 70 nM | 78 nM |  |  |  | 
COc1ccc(CN(C(=O)CSC(=S)N2CCN(c3ccc(Cl)cc3)CC2)c2cc(OC)c(OC)c(OC)c2)cc1O | 38 nM | 45 nM | 59 nM |  |  |  | 
COc1ccc(CN(C(=O)CSC(=S)N2CCN(c3ccc(O)cc3)CC2)c2cc(OC)c(OC)c(OC)c2)cc1O | 78 nM | 86 nM | 100 nM |  |  |  | 
CCOC(=O)C1CCN(C(=S)SCC(=O)N(Cc2ccc(OC)c(O)c2)c2cc(OC)c(OC)c(OC)c2)CC1 | 700 nM | 670 nM | 690 nM |  |  |  | 
CCOC(=O)N1CCN(C(=S)SCC(=O)N(Cc2ccc(OC)c(O)c2)c2cc(OC)c(OC)c(OC)c2)CC1 | 79 nM | 69 nM | 89 nM |  |  |  | 
COc1cccc(N2CCN(C(=S)SCC(=O)N(Cc3ccc(OC)c(O)c3)c3cc(OC)c(OC)c(OC)c3)CC2)c1 | 75 nM | 59 nM | 150 nM |  |  |  | 
COc1ccc(CN(C(=O)CSC(=S)N2CCN(C(=O)OC(C)(C)C)CC2)c2cc(OC)c(OC)c(OC)c2)cc1O | 84 nM | 78 nM | 220 nM |  |  |  | 2670 nM
COc1ccc(CN(C(=O)CSC(=S)N2CCC(c3ccccc3)CC2)c2cc(OC)c(OC)c(OC)c2)cc1O | 340 nM | 380 nM | 170 nM |  |  |  | 
C/C=C/C(=O)N(Cc1ccc(OC)c(O)c1)c1cc(OC)c(OC)c(OC)c1 | 28 nM | 62 nM | 54 nM |  |  |  | 
COc1ccc(N2CCN(C(=S)SCC(=O)N(Cc3ccc(OC)c(O)c3)c3cc(OC)c(OC)c(OC)c3)CC2)cc1 | 45 nM | 67 nM | 59 nM |  |  |  | 
Cc1ccc(Cn2cc(CSC(=S)N3CCN(C(=O)OC(C)(C)C)CC3)nn2)cc1 | 2810 nM | > 20000 nM | 12800 nM |  |  |  | 
COc1ccc(CN(C(=O)CSC(=S)N2CCC(C)CC2)c2cc(OC)c(OC)c(OC)c2)cc1O | 380 nM | 860 nM | 890 nM |  |  |  | 
